From patent US10363245B2, “Methods for treating CNS lesions” (THE BOARD OF REGENTS OF THE UNIVERSITY OF TEXAS SYSTEM, priority 2017, dated 2019)

Legend:
MS patients [1] = assay: Stage 1B dose-escalation study: twice daily oral ACZ, cerebral blood flow by pCASL MRI, DTI and T2 relaxometry
MS patients [2] = assay: Stage 1A clinical study: single 1000 mg IV ACZ bolus, cerebral blood flow by pCASL MRI
healthy controls = details: historical reports; cited from earlier work
[3] = Subj 001, oral 1000 mg BID for 2 weeks, versus baseline

CC(=O)Nc1nnc(S(N)(=O)=O)s1 [ACZ, acetazolamide]
CBF in the region with the larger T2 to T1 mismatch (qualitative pCASL) (MS patients [1]; [3]): increased
qualitative DTI and T2 relaxometry measures (MS patients [1]; [3]): changed little
potential for tachyphylaxis (MS patients [1]; oral, 1000 mg twice daily): limited if any potential for tachyphylaxis
sustained increases in global CBF (MS patients [1]; oral, 1000 mg twice daily): 10-25%
tolerability of oral ACZ (MS patients [1]; oral, 1000 mg twice daily): well tolerated, with minimal reported adverse events
time for global CBF to return near baseline (MS patients [2]; after IV ACZ, MS patients): 120 min
change in global cerebral perfusion (pCASL) (MS patients [2]; following IV ACZ): Rapid increases
duration of increases in CBF above baseline (MS patients [2]; single 1000 mg IV bolus, regardless of region): up to 180 minutes
tolerability of single IV bolus (MS patients [2]; single bolus of IV ACZ, five MS patients): generally well tolerated without serious AEs
time for cerebral blood flow (CBF) to return near baseline (healthy controls): ≤ 60 min
